These results are taken from US4798834A, “Optionally substituted (3β-9,10-didehydro-2,3-dihydro ergoline as serotonergic function enhancement” (Eli Lilly and Company, priority 1987, dated 1989).

One experiment concerns the target 5-HT1 receptor. The experiment in a line: binding to 5-HT1 sites ([3H]serotonin displacement, rat brain frontal cortex). The arrangement: species or system rat (Wistar). To be noted: for pIC50: 2 nM [3H]serotonin, rat frontal cortex; for Selectivity Ratio: IC50 5HT2 / IC50 5HT1, values greater than 1 indicate selectivity for the 5HT1 receptor. The method, then:
All radioactive ligands were obtained from New England Nuclear, Boston, Mass., USA. Specific binding was determined as the difference between total binding and nonspecific binding. Eleven concentrations of each of the compounds tested were used between 0.1 and 10,000 nM. All samples were run in duplicate.

Another experiment has as its target T1, 5-HT2 receptor (Rattus norvegicus, UniProt P14842).
T1 construct: Rat brain frontal cortex from male Wistar rats; from tissue; host or cells: rat brain frontal cortex (male Wistar), membrane pellet
Description: binding to 5-HT2 sites ([3H]spiperone displacement, rat brain frontal cortex). The arrangement: species or system rat (Wistar). Here is the method:
The pellet from the frontal cortex homogenates was suspended in 0.05 molar (M) Tris buffer containing 10 micromolar (μM) pargyline and 4 millimolar (mM) Ca^++ to give a final protein concentration of 250-350 microgram (μg) per sample. […] All radioactive ligands were obtained from New England Nuclear, Boston, Mass., USA. Specific binding was determined as the difference between total binding and nonspecific binding. Eleven concentrations of each of the compounds tested were used between 0.1 and 10,000 nM. All samples were run in duplicate.

Experiment [1] has as its system serotonin and 5-HIAA in rat brain. The experiment in a line: animal or person. It counts as in vivo, rat (Wistar). To be noted: sc, subcutaneous, 1 h after injection, p<0.05 vs control, read-out: Minimum effective dose suppressing 5-HIAA. The method, then: Male Wistar rate (HSD/[WI]BR) weighing about 150 g were kept in a temperature-controlled (24° C.) and light-controlled room (lights on from 7:00 A.M. to 7:00 P.M.) with food and water freely available. The compounds to be tested were dissolved in dilute hydrochloric acid and injected subcutaneously. Five rats per group were used in each experiment. The rats were decapitated one hour after injection and the brains were excised quickly, frozen on dry ice and stored at -15° C. before analysis. […] Neurosci. Abstr. […] Serum corticosterone levels were determined spectrofluorometrically by the method of Solem et al., Scand. J. Clin. Lab. Invest. […] 80, 1.

The next experiment deals with serum corticosterone. Description: corticosterone concentrations in the serum of rats. It counts as in vivo, rat (Wistar). To be noted: sc; subcutaneous; rat, 1 h after injection; p<0.05 vs control; read-out: Minimum effective dose increasing serum corticosterone. The method, then:
(§1) Male Wistar rate (HSD/[WI]BR) weighing about 150 g were kept in a temperature-controlled (24° C.) and light-controlled room (lights on from 7:00 A.M. to 7:00 P.M.) with food and water freely available. The compounds to be tested were dissolved in dilute hydrochloric acid and injected subcutaneously. Five rats per group were used in each experiment. The rats were decapitated one hour after injection and the brains were excised quickly, frozen on dry ice and stored at -15° C. before analysis. […] See Fuller et al., Biochem. Pharmacol. 1977, 26, 2087 and Perry et al., Soc. Neurosci. Abstr. 1979, 5, 348. Serum corticosterone levels were determined spectrofluorometrically by the method of Solem et al., Scand. J. Clin. Lab. Invest. 1965, 17, suppl. 80, 1.
The minimum effective doses of these same compounds which produced a statistically significant decrease in 5-HIAA concentration and a statistically significant increase in serum corticosterone concentration are shown in Table II. The minimum effective dose is the lowest dose producing significant differences from a control group (p<0.05).

In experiment [2] the test system is 5-hydroxytryptophan in rat hypothalamus. Description: accumulation of 5-hydroxytryptophan in rat hypothalamus (NSD-1015 treated rats). It counts as in vivo, rat (Wistar). To be noted: for 5-Hydroxytryptophan Concentration in Hypothalamus: NSD-1015 100 mg/kg i.p., mean ± SE, n=5, control 1.92 ± 0.07, significant decrease p<0.01. Here is the method: as §1
The protocol previously described for neurochemical determinations was repeated with the following modification. To each of the five rats in the treatment group was administered the amino acid decarboxylase inhibitor m-hydroxybenzylhydrazine (also known as NSD-1015). See Euvard et al., Eur. J. Pharmacol. 1980, 63, 65 and Hamon et al., Arch. Pharmacol. 1976, 294, 99. The NSD-1015 was administered at a dose of 100 mg/kg (intraperitoneal) 30 minutes before decapitation and 30 minutes after the dose of the test compound of Example 1 was given.

pIC50: −log10 of the molar value. “Also recorded” adds a separate entry of the source.

T1 sequence (P14842 whole entry): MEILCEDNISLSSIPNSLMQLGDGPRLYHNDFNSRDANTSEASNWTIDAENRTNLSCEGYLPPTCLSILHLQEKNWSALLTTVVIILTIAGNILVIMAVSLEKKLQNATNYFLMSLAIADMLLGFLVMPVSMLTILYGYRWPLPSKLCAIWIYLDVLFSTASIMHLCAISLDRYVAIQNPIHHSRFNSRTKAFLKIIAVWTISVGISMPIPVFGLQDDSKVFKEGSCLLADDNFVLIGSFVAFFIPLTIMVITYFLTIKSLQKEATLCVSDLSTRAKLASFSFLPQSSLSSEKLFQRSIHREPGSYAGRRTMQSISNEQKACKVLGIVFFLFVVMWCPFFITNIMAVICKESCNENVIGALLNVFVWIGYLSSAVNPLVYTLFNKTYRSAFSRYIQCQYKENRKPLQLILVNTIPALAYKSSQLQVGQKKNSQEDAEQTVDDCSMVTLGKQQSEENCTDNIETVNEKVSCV

As for `C=C1C=C2c3cccc4c3[C@@H](CN4)C[C@H]2N(C)C1` [Example 4, (3β)-2,3-Dihydrolysergene], on 5-HT1 receptor, the negative logarithm of the IC50 (pIC50) is 7.10 and the “Selectivity Ratio” value is on record as 48. Besides, the pIC50 on 5-HT2 receptor is 5.42.

`NCCc1c[nH]c2ccc(O)cc12` [serotonin, 5-hydroxytryptamine, reference compound] gave a pIC50 at 5-HT1 receptor of 8.40.

`CN1C[C@H](CC#N)C=C2c3cccc4c3[C@@H](CN4)C[C@H]21` [Example 6, (3β,5β,8β)-9,10-Didehydro-2,3-dihydro-6-methylergoline-8-acetonitrile]: the minimal effective dose (in experiment [1]; in the experiment on serum corticosterone) was 0.1 mg/kg in each case. Besides, the pIC50 on 5-HT1 receptor was 7.70; at 5-HT2 receptor, 5.67.

With `C[C@H]1C=C2c3cccc4c3[C@@H](CN4)C[C@H]2N(C)C1` [Example 2, (3β)-2,3-Dihydroisolysergine], the minimal effective dose in experiment [1] was found to be 0.001 mg/kg; in the experiment with serum corticosterone, 0.003 mg/kg. For the same compound, the pIC50 on 5-HT1 receptor is 7.70; on 5-HT2 receptor, < 6.00. The “Selectivity Ratio” value with 5-HT1 receptor is on record as “at least 100”.

With `COC(=O)[C@@H]1C=C2c3cccc4c3[C@@H](CN4)C[C@H]2N(C)C1` [Example 9, (3β)-2,3-Dihydro-methyllysergate], on 5-HT1 receptor, the pIC50 is 7.40 and the “Selectivity Ratio” value was determined as 40. The same compound showed a pIC50 on 5-HT2 receptor of 5.79.

Take `C[C@@H]1C=C2c3cccc4c3[C@@H](CN4)C[C@H]2N(C)C1` [Example 1, (3β)-2,3-Dihydrolysergine]: the minimal effective dose in experiment [1] is 0.03 mg/kg; with serum corticosterone it was 0.1 mg/kg. For the same compound, the “5-Hydroxytryptophan Concentration in Hypothalamus” value in experiment [2] (0.01 mg/kg subcutaneous) was found to be 1.64 ± 0.07 nanomoles per gram; in experiment [2] (0.03 mg/kg subcutaneous), 1.19 ± 0.05 nanomoles per gram; in experiment [2] (0.1 mg/kg subcutaneous), 0.73 ± 0.02 nanomoles per gram; in experiment [2] (0.3 mg/kg subcutaneous), 0.71 ± 0.02 nanomoles per gram. Moreover, the “5-hydroxytryptophan accumulation in the hypothalamus (in words)” value in experiment [2] (NSD-1015 treated rats, 0.01-0.3 mg/kg subcutaneous) is listed as “dose related decrease in 5-hydroxytryptophan accumulation; also recorded: Significant effects were detected at all of the doses used”. Further, the “dose of maximal reduction of serotonin turnover” value in experiment [2] (NSD-1015 treated rats, subcutaneous) was determined as 0.1 mg/kg. The values for the pIC50 on 5-HT1 receptor and at 5-HT2 receptor were 7.77 and 5.78, respectively.

Consider `CN1C[C@H](CO)C=C2c3cccc4c3[C@@H](CN4)C[C@H]21` [Example 3, (3β)-2,3-Dihydrolysergol], for which the minimal effective dose in experiment [1] stood at 1 mg/kg; with serum corticosterone, 0.1 mg/kg. In addition, the figures for the negative-log IC50 (pIC50) at 5-HT1 receptor and on 5-HT2 receptor were 7.59 and 5.58, respectively.

Take `CN1C[C@H](CSc2ccccc2)C=C2c3cccc4c3[C@@H](CN4)C[C@H]21` [Example 7, (3β,5β,8β)-9,10-Didehydro-2,3-dihydro-6-methyl-8-(phenylthiomethyl) ergoline]: on 5-HT1 receptor, the pIC50 is 8.10 and the “Selectivity Ratio” value came to 26. On 5-HT2 receptor, this compound gave a negative logarithm of the IC50 (pIC50) of 6.68.

In the case of `CCCN1C[C@H](C)C=C2c3cccc4c3[C@@H](CN4)C[C@H]21` [Example 10, (3β,5β,8β)-9,10-Didehydro-2,3-dihydro-8-methyl-6-propylergoline], the pIC50 at 5-HT1 receptor was 6.62; on 5-HT2 receptor, < 6.00.

Take `CSC[C@@H]1C=C2c3cccc4c3[C@@H](CN4)C[C@H]2N(C)C1` [Example 5, (3β,5β,8β)-9,10-Didehydro-2,3-dihydro-6-methyl-8-(methylthiomethyl) ergoline]: the minimal effective dose was determined as 0.1 mg/kg in experiment [1] and 1 mg/kg with serum corticosterone. For the same compound, the pIC50 at 5-HT1 receptor was 7.70; at 5-HT2 receptor, 5.88. Further, the “Selectivity Ratio” value with 5-HT1 receptor is given as 66.

Consider `CN1C[C@H](CSc2ccccn2)C=C2c3cccc4c3[C@@H](CN4)C[C@H]21` [Example 8, (3β,5β,8β)-9,10-Didehydro-2,3-dihydro-6-methyl-8-(2-pyridylthiomethyl)ergoline], for which, on 5-HT1 receptor, the pIC50 was 8.52 and the “Selectivity Ratio” value amounted to 28. Also, at 5-HT2 receptor, the pIC50 is 6.96.
